Experimental data as given in ChEMBL document CHEMBL5233246, “CT1-3, a novel magnolol-sulforaphane hybrid suppresses tumorigenesis through inducing mitochondria-mediated apoptosis and inhibiting epithelial mesenchymal transition” (Eur J Med Chem, 2020).
Active and inactive are the calls of the source. The rule behind the calls is not given here.

Columns and labels:
[1] = Toxicity in BALB/c mouse xenografted with human MDA-MB-231 cells assessed as kidney pathological change at 20 mg/kg,ip measured after 28 days; format: organism-based; settings: in vivo, 672 h, time 28 day
LoVo [2] = assay: Induction of apoptosis in human LoVo cells assessed as increase in Bax protein expression level at 7.5 uM incubated for 24 hrs by western blot assay; format: functional, cell-based
NCI-H460 [3] = assay: Inhibition of cell migration in human NCI-H460 cells at 7.5 uM incubated for 24 hrs by crystal violet staining based transwell assay; format: functional
LoVo [4] = assay: Induction of apoptosis in human LoVo cells assessed as reduction of mitochondrial membrane potential at 10 uM incubated for 8 hrs by JC-1 staining based fluorescence microscopic assay; format: functional, cell-based
MDA-MB-231 [5] = assay: Antiproliferative activity against human MDA-MB-231 cells assessed as reduction in cell viability incubated for 24 hrs by CCK-8 assay; format: functional, cell-based; settings: MDA-MB-231, 24 h
SGC-7901 = assay: Antiproliferative activity against human SGC-7901 cells assessed as reduction in cell viability incubated for 24 hrs by CCK-8 assay; format: functional, cell-based; settings: SGC-7901, 24 h
A549 [6] = assay: Antiproliferative activity against human A549 cells assessed as reduction in cell viability incubated for 24 hrs by CCK-8 assay; format: functional, cell-based; settings: A549, 24 h
MDA-MB-231 [7] = assay: Antitumor activity against human MDA-MB-231 cells xenografted in BALB/c mouse assessed as reduction in tumor growth at 20 mg/kg,ip measured after 28 days; format: functional, organism-based; settings: time 28.0 day
OVCAR-3 [8] = assay: Inhibition of colony formation in human OVCAR-3 cells incubated for 48 hrs by Giemsa staining based microscopy; format: functional, cell-based
NCI-H460 [9] = assay: Induction of apoptosis in human NCI-H460 cells assessed as late apoptotic cells at 10 uM incubated for 24 hrs by annexin V-FITC/propidium iodide staining based flow cytometry analysis (reference value: 0.4%); format: functional
[10] = Antiproliferative activity against human NCI-H1688 cells assessed as reduction in cell viability incubated for 24 hrs by CCK-8 assay; format: functional, cell-based; settings: NCI-H1688, 24 h
NCI-H460 [11] = assay: Inhibition of colony formation in human NCI-H460 cells incubated for 48 hrs by Giemsa staining based microscopy; format: functional, cell-based
[12] = Antiproliferative activity against human […] cells assessed as reduction in cell viability incubated for 24 hrs by CCK-8 assay; format: functional, cell-based
NCI-H1299 = assay: Antiproliferative activity against human NCI-H1299 cells assessed as reduction in cell viability incubated for 24 hrs by CCK-8 assay; format: functional, cell-based; settings: NCI-H1299, 24 h
NCI-H460 [13] = assay: Induction of apoptosis in human NCI-H460 cells assessed as increase in Bax protein expression level at 7.5 uM incubated for 24 hrs by western blot assay; format: functional, cell-based
MDA-MB-231 [14] = assay: Antitumor activity against human MDA-MB-231 cells xenografted in BALB/c mouse assessed as tumor necrosis at 20 mg/kg,ip measured after 28 days; format: functional, organism-based; settings: time 28.0 day
SW480 = assay: Inhibition of colony formation in human SW480 cells incubated for 48 hrs by Giemsa staining based microscopy; format: functional, cell-based
LoVo [15] = assay: Induction of apoptosis in human LoVo cells assessed as early apoptotic cells at 10 uM incubated for 24 hrs by annexin V-FITC/propidium iodide staining based flow cytometry analysis (reference value: 1.3%); format: functional
A549 [16] = assay: Inhibition of cell migration in human A549 cells at 7.5 uM incubated for 24 hrs by crystal violet staining based transwell assay; format: functional
A549 [17] = assay: Induction of apoptosis in human A549 cells assessed as early apoptotic cells at 10 uM incubated for 24 hrs by annexin V-FITC/propidium iodide staining based flow cytometry analysis (reference value: 3.6%); format: functional
LoVo [18] = assay: Inhibition of cell migration in human LoVo cells assessed as upregulation of E-cadherin protein expression at 7.5 uM incubated for 24 hrs by western blot analysis; format: functional, cell-based
LoVo [19] = assay: Induction of apoptosis in human LoVo cells assessed as decrease in Bcl-2 protein expression level at 7.5 uM incubated for 24 hrs by western blot assay; format: functional, cell-based
NCI-H460 [20] = assay: Induction of apoptosis in human NCI-H460 cells assessed as necrotic cells at 10 uM incubated for 24 hrs by annexin V-FITC/propidium iodide staining based flow cytometry analysis (reference value: 0.9%); format: functional
L02 = assay: Cytotoxicity against human L02 cells assessed as reduction in cell viability incubated for 8 hrs by CCK-8 assay; format: toxicity, cell-based; settings: l02, 8 h
NCI-H460 [21] = assay: Induction of apoptosis in human NCI-H460 cells assessed as increase in JNK phosphorylation level at 7.5 uM incubated for 24 hrs by western blot assay; format: functional, cell-based
HONE1 cell line = assay: Antiproliferative activity against human HONE1 cell line assessed as reduction in cell viability incubated for 24 hrs by CCK-8 assay; format: functional, cell-based; settings: HONE1, 24 h
OVCAR-3 [22] = assay: Antitumor activity against human OVCAR-3 cells xenografted in BALB/c mouse assessed as reduction in tumor growth at 20 mg/kg,ip measured after 28 days; format: functional, organism-based; settings: time 28.0 day

In the case of `C=CCc1ccc(O)c(-c2cc(CC=C)ccc2OCC[S+]([O-])CCCCN=C=S)c1` (configuration not stated), the Activity [1] is reported as “Non-Toxic”, the Activity (LoVo [2]) is reported as “Active” and the inhibition (NCI-H460 [3]) is reported as “Active”. The Activity (LoVo [4]) was “Active”, the IC50 (MDA-MB-231 [5]) was 7.48 µM and the IC50 (SGC-7901) was 11.5 µM. The IC50 (A549 [6]) was 9.07 µM, the Activity (MDA-MB-231 [7]) was “Active” and the inhibition (OVCAR-3 [8]) was “Active”. For the same compound, the Activity (NCI-H460 [9]) was 72.9%, the IC50 [10] was 12.8 µM and the inhibition (NCI-H460 [11]) was “Active”. For the same compound, the IC50 [12] was 9.56 µM, the IC50 (NCI-H1299) was 9.17 µM and the Activity (NCI-H460 [13]) was “Active”. For the same compound, the Activity (MDA-MB-231 [14]) was “Active”, the inhibition (SW480) was “Active” and the Activity (LoVo [15]) was 16.7%. For the same compound, the inhibition (A549 [16]) was “Active”, the Activity (A549 [17]) was 13.9% and the inhibition (LoVo [18]) was “Active”. For the same compound, the Activity (LoVo [19]) was “Active”, the Activity (NCI-H460 [20]) was 3.6% and the Activity (L02) was “Non-Toxic”. The Activity (NCI-H460 [21]) was “Active”, the IC50 (HONE1 cell line) was 14.1 µM and the Activity (OVCAR-3 [22]) was “Active”.
